These results are taken from patent publication US10837044B2, “Automated method for analyzing and interpreting an antimicrobial susceptibility” (FONDATION MEDITERRANEE INFECTION, priority 2014, dated 2020).

Holding throughout (assay): antibiogram by diffusion on Mueller-Hinton agar with antibiotic wafers
Type in all cases: cell-based

For one test, the system named is Entercoccus faecalis. The following applies: Table C1, six wafers, disk loads of Table B. On the procedure: (§1) The inoculum was prepared by making a suspension of bacteria directly from colonies put into solution in tubes of sterile water so that the solution presented accurate opacity as determined with a spectrophotometer equivalent to the opacity of a 0.5 standard in the McFarland range. This bacterial suspension concentration is standardized since a more concentrated inoculum would lead to smaller diameters for the inhibition zone, and vice versa.
(§2) The inoculum corresponds to concentrations of about 10^8 CFU/mL for Escherichia coli, Klebsiella pneumoniae, Proteus mirabilis, Klebsiella oxytoca, Enterobacter cloacea, Enterobacter aerogenes, Entercoccus faecalis, Pseudomonas aeruginosa, Staphylococcus aureus, and Staphylococcus epidermidis. These are the ten species bacteria that are encountered the most frequently in human pathologies.
(§3) 1.2) The bacterial sample was deposited on a solid culture medium in a petri dish having a diameter of 90 mm or in a square dish having a side of 120 mm, the medium being constituted by a Mueller-Hinton agar specific for (EUCAST) antibiograms. Ideally, it should be used in the 15 minutes (min) following preparation of the suspension.
(§4) Seeding was done by the method of diffusion on an agar medium by flooding in which excess bacterial suspension was added to the Mueller-Hinton agar. After homogenizing, excess liquid was discarded in order to avoid over-inoculating the dishes. It is necessary to wait beforehand for the surface of the agar to be dry in order to eliminate any trace of moisture encouraging bacterial invasion.
(§5) The disks of the antibiotic wafers were deposited within 15 min after inoculating the agar. The antibiotic impregnated disks were deposited using an automatic dispenser that placed the disks firmly on the surface of the inoculated and dried agar. The number of disks deposited per dish was limited because of inhibition zone overlap and in order to limit interference between antibiotics. It is important for the inhibition diameters to be measurable. The antibiograms were then incubated at 37° C. for 18 hours (h) to 24 h.
(§6) The antibiotic wafers were made of high quality absorbent paper with a diameter of 6 mm and they were impregnated with antibiotics at concentrations in the range 1 micrograms (μg) to 300 μg approximately, depending on the antibiotic.
(§7) In the examples below, reference disks were used as sold by the suppliers i2a (Montpellier, France), BD (Becton Dickinson, USA), Bio-Rad (Hercules, USA), Biomerieux (Marcy l′Etoile, France) containing the following antibiotics and carrying the following codes and the following doses: AMX (amoxicillin) 25 μg: AMC (amoxicillin-clavulanic acid) 20 μg-10 μg; GM for gentamicin, 15 μg; SXT (trimethoprim-sulfamethoxazole) 1.25/23.75 μg; TIC (ticarcillin) 75 μg; TCC (ticarcillin-clavulanic acid) […]; TZP (piperacillin-tazobactam) 75/10 μg; CAZ (ceftazidime) 30 μg; IMP or IPM (imipeneme) 10 μg; COL (colistin) 50 μg; FOX (cefoxitine) 30 μg; VAN (vancomycin) 30 μg; TEC (teicoplanin) 30 μg; CLI or DA (clindamycin) 2 μg; CRO (ceftriaxone) 30 μg; CIP (ciprofloxacin) 5 μg; OFX (ofloxacin) 5 μg; CTX (cefotaxime) 5 μg; AN or AK (amikacin) 30 μg; TM (tobramycin) 10 μg; FOX (cefoxitine) 30 μg; ATM (aztreonam) 30 μg; ERT (ertapenem) 10 μg; FF (fosfomycin) 200 μg; DO (doxycycline) 30 μg; K (kanamycin) 1000 μg; L (lincomycin) 15 μs; LNZ (linezolid) 10 μg; AN (nalidixic acid) 30 μg; NOR (norfloxacin) 10 μg; PT (pristinamycin) 15 μg; RA (rifampicin) 5 μg; and E (erythromycin) 15 μg.

Another test has as its system Escherichia coli. Conditions: for resistance (I, R) or sensitivity (S): Table C1, disk loads of Table B; for resistant (I/R) or sensitive (S): Table C2, square dish. How it is done: as §1, §2, §3, §4, §5, §6, §7
For another test, the system named is Klebsiella pneumoniae. The following applies: Table C2, sixteen wafers, square dish. On the procedure: as §1, §2, §3, §4, §5, §6, §7
The subject of a further test is Proteus mirabilis. Conditions: Table C1, six wafers, disk loads of Table B. On the procedure:
as §1, §2, §3, §4, §5, §6, §7

The test system of a further test is Staphylococcus aureus. Conditions: for resistance (I, R) or sensitivity (S): Table C1, six wafers, disk loads of Table B; for resistant (I/R) or sensitive (S): Table C2, sixteen wafers, square dish. On the procedure:
as §1, §2, §3, §4, §5, §6, §7

Test [1] has as its system Staphylococcus epidermidis. Conditions: Table C1, six wafers, disk loads of Table B. How it is done: as §1, §2, §3, §4, §5, §6, §7
[2] abbreviates: E. coli phenotype Cephalosporinase + R to fluoroquinolones + R to cotrimoxazole + partial R to aminosides, sixteen wafers.
[3] abbreviates: E. coli phenotype Hl penicillinase + R to fluoroquinolones + R to cotrimoxazole + partial R to aminosides, sixteen wafers.
The mark [4] stands for this setting: E. coli phenotype Wild, sixteen wafers in a rectangular grid.
The mark [5] stands for this setting: K. pneumoniae phenotype Cephalosporinase + R to aminosides + R to cotrimoxazole.
Where [6] appears, read: S. aureus phenotype R to methicilline, R to aminosides, fluoroquinolones, to rifampicie, to macrolides and the like.
Where [7] appears, read: S. aureus phenotype Methicillin resistant.
Setting [8] is: S. epidermidis phenotype Methicillin resistant.

For the compound `CC1(C)S[C@@H]2[C@H](NC(=O)[C@H](N)c3ccc(O)cc3)C(=O)N2[C@H]1C(=O)O` [AMX, amoxicillin], the “resistance (I, R) or sensitivity (S)” value in the test with Entercoccus faecalis (E. faecalis phenotype Atypical) was “R”; in the test with Entercoccus faecalis (E. faecalis phenotype Wild), “S”; with Escherichia coli (E. coli phenotype BSBL, six wafers), “R”; in the test with Escherichia coli (E. coli phenotype Carbapenemase, six wafers), “R”; with Escherichia coli (E. coli phenotype Hl cephalosporinase, six wafers), “R”; in the test on Escherichia coli (E. coli phenotype Hl penicillinase, six wafers), “R”. Moreover, the “resistance (I, R) or sensitivity (S)” value was “R” in the test with Escherichia coli (E. coli phenotype Inhibitor resistant penicillinase, six wafers); “R” with Escherichia coli (E. coli phenotype Ll penicillinase, six wafers); “S” in the test on Escherichia coli (E. coli phenotype Wild, six wafers in a circle); “R” in the test on Proteus mirabilis (P. mirabilis phenotype Hl cephalosporinase); “R” with Proteus mirabilis (P. mirabilis phenotype Hl penicillinase); “R” in the test on Proteus mirabilis (P. mirabilis phenotype Inhibitor resistant penicillinase). Besides, the results for the “resistance (I, R) or sensitivity (S)” value with Proteus mirabilis (P. mirabilis phenotype Ll penicillinase) and in the test on Proteus mirabilis (P. mirabilis phenotype Wild) were “R” and “S”, respectively. In addition, the “synergy zone between two antibiotic wafers placed side by side” value is given as “absence of a zone of synergy” in the test on Escherichia coli (E. coli cephalosporinase phenotype (FIGS. 2D, 2E)) and “presence of a zone of synergy” with Escherichia coli (E. coli strain of BSBL phenotype, champagne-cork shaped inhibition zone). Moreover, the “resistant (I/R) or sensitive (S)” value in the test with Escherichia coli (setting [2]) is “R”; in the test with Escherichia coli (setting [3]), “R”; in the test with Escherichia coli (setting [4]) it was “S”; in the test on Klebsiella pneumoniae (setting [5]), “R”; with Klebsiella pneumoniae (K. pneumoniae phenotype Wild), “R”.
As to `CCC[C@@H]1C[C@@H](C(=O)N[C@@H]([C@H]2O[C@H](SC)[C@H](O)[C@@H](O)[C@H]2O)[C@H](C)Cl)N(C)C1` [CLI, clindamycin], the “resistance (I, R) or sensitivity (S)” value (in the test with Staphylococcus aureus (S. aureus phenotype Wild); in test [1] (S. epidermidis phenotype Wild)) was “S” each time. The “resistant (I/R) or sensitive (S)” value in the test with Staphylococcus aureus (setting [6]) is reported as “R”; with Staphylococcus aureus (S. aureus phenotype Wild), “S”.
Regarding `CO[C@@]1(NC(=O)Cc2cccs2)C(=O)N2C(C(=O)O)=C(COC(N)=O)CS[C@@H]21` [FOX, cefoxitine], the “resistant (I/R) or sensitive (S)” value was “S” with Escherichia coli (setting [2]); “S” in the test with Escherichia coli (setting [3]); “S” in the test with Escherichia coli (setting [4]); “S” in the test with Klebsiella pneumoniae (setting [5]); “S” in the test on Klebsiella pneumoniae (K. pneumoniae phenotype Wild); “R” in the test with Staphylococcus aureus (setting [6]). The “resistant (I/R) or sensitive (S)” value with Staphylococcus aureus (S. aureus phenotype Wild) is recorded as “S”. In addition, the “resistance (I, R) or sensitivity (S)” value is listed as “R” in the test on Staphylococcus aureus (setting [7]), “S” with Staphylococcus aureus (S. aureus phenotype Wild), “R” in test [1] (setting [8]) and “S” in test [1] (S. epidermidis phenotype Wild).
In the case of `O=C1CN(/N=C/c2ccc([N+](=O)[O-])o2)C(=O)N1` [FUR, nitrofurantoin], the “resistance (I, R) or sensitivity (S)” value with Entercoccus faecalis (E. faecalis phenotype Atypical) and in the test on Entercoccus faecalis (E. faecalis phenotype Wild) was “S” throughout. For the same compound, the “resistant (I/R) or sensitive (S)” value in the test on Staphylococcus aureus (setting [6]) was “R”; in the test with Staphylococcus aureus (S. aureus phenotype Wild) it was “S”.
Take `CCC[C@@H]1C[C@@H](C(=O)N[C@@H]([C@H]2O[C@H](SC)[C@H](O)[C@@H](O)[C@H]2O)[C@@H](C)O)N(C)C1` [LIN, lincomycin]: the “resistance (I, R) or sensitivity (S)” value in the test with Entercoccus faecalis (E. faecalis phenotype Atypical) and in the test with Entercoccus faecalis (E. faecalis phenotype Wild) was “S” in each case.
Take `CN[C@H](CC(C)C)C(=O)N[C@H]1C(=O)N[C@@H](CC(N)=O)C(=O)N[C@H]2C(=O)N[C@H]3C(=O)N[C@H](C(=O)N[C@H](C(=O)O)c4cc(O)cc(O)c4-c4cc3ccc4O)[C@H](O)c3ccc(c(Cl)c3)Oc3cc2cc(c3O[C@@H]2O[C@H](CO)[C@@H](O)[C@H](O)[C@H]2O[C@H]2C[C@](C)(N)[C@H](O)[C@H](C)O2)Oc2ccc(cc2Cl)[C@H]1O` [VAN, vancomycin]: the “resistance (I, R) or sensitivity (S)” value (with Entercoccus faecalis (E. faecalis phenotype Atypical); in the test on Entercoccus faecalis (E. faecalis phenotype Wild); in the test on Staphylococcus aureus (setting [7]); in the test with Staphylococcus aureus (S. aureus phenotype Wild); in test [1] (setting [8]); in test [1] (S. epidermidis phenotype Wild)) was “S” each time. In addition, the “resistant (I/R) or sensitive (S)” value with Staphylococcus aureus (setting [6]) and with Staphylococcus aureus (S. aureus phenotype Wild) was “S” in each case.
As for gentamicin, the “resistance (I, R) or sensitivity (S)” value (in the test with Entercoccus faecalis (E. faecalis phenotype Atypical); in the test with Entercoccus faecalis (E. faecalis phenotype Wild); in the test on Staphylococcus aureus (setting [7]); with Staphylococcus aureus (S. aureus phenotype Wild); in test [1] (setting [8]); in test [1] (S. epidermidis phenotype Wild)) was “S” throughout. For the same compound, the “resistant (I/R) or sensitive (S)” value in the test on Escherichia coli (setting [2]) is listed as “R”; in the test on Escherichia coli (setting [3]), “R”; in the test with Escherichia coli (setting [4]), “S”; in the test with Klebsiella pneumoniae (setting [5]), “R”; in the test with Klebsiella pneumoniae (K. pneumoniae phenotype Wild), “R”; in the test on Staphylococcus aureus (setting [6]) it was “R”. Moreover, in the test with Staphylococcus aureus (S. aureus phenotype Wild), the “resistant (I/R) or sensitive (S)” value is “S”.
For teicoplanin [TEC], the “resistance (I, R) or sensitivity (S)” value (in the test on Entercoccus faecalis (E. faecalis phenotype Atypical); in the test on Entercoccus faecalis (E. faecalis phenotype Wild); with Staphylococcus aureus (setting [7]); with Staphylococcus aureus (S. aureus phenotype Wild); in test [1] (setting [8]); in test [1] (S. epidermidis phenotype Wild)) was “S” each time. Further, the “resistant (I/R) or sensitive (S)” value with Staphylococcus aureus (setting [6]) and in the test on Staphylococcus aureus (S. aureus phenotype Wild) was “S” throughout.
For “trimethoprim-sulfamethoxazole (cotrimoxazole) [SXT]”, the “resistant (I/R) or sensitive (S)” value is “R” in the test with Escherichia coli (setting [2]); “R” in the test with Escherichia coli (setting [3]); “S” in the test with Escherichia coli (setting [4]); “R” in the test on Klebsiella pneumoniae (setting [5]); “R” with Klebsiella pneumoniae (K. pneumoniae phenotype Wild); “R” in the test with Staphylococcus aureus (setting [6]). For the same compound, the “resistant (I/R) or sensitive (S)” value in the test with Staphylococcus aureus (S. aureus phenotype Wild) is on record as “S”. For the same compound, the “resistance (I, R) or sensitivity (S)” value (in the test with Staphylococcus aureus (setting [7]); in the test on Staphylococcus aureus (S. aureus phenotype Wild); in test [1] (setting [8]); in test [1] (S. epidermidis phenotype Wild)) was “S” each time.
